Measurements: US20100028266A1, “Composition and methods for treating allergic response” (Alpha Synergy Development. Inc., priority 2008, published 2010)

Legend:
[1] = tested on: eyes of a patient with an ocular condition of moderate hyperemia; assay: FIGS. 5A-C: reversal of pre-induced rebound hyperemia; format: in vivo, human; settings: brimonidine at […] given after VISINE Original
From the text: FIG. 5A is a baseline visual appearance of two eyes of a patient with an ocular condition.

[2] = tested on: eyes of a patient with an ocular condition (baseline redness 4/4); settings: brimonidine at 0.01%, 0.02%, […] (left eye) compared with tetrahydrozoline 0.05%, oxymetazoline […], naphazoline […] (right eye)
From the text: In an average clinical situation, baseline redness is at 1-1.5/4.

[3] = tested on: patients with chronic red eyes; assay: Example 5: chronic red eyes, one eye each treatment, patient satisfaction assessment; format: in vivo, human
Description: The treatment was through drops twice a day for three to five weeks. At the end, patient satisfaction assessment was conducted.

## Brc1c(N=C2NCCN2)ccc2nccnc12.O=C(O)C(O)C(O)C(=O)O [brimonidine, 5-bromo-6-(2-imidazolidinylideneamino)quinoxaline L-tartrate]
[1]
  effect on VISINE Original induced rebound hyperemia, right eye: reversing the VISINE Original® induced rebound hyperemia
[2]
  scleral whitening brightening effects: significant scleral whitening brightening effects
[3]; brimonidine at […] in one eye, Naphcon-A in the other, twice a day for three to five weeks
  patients who preferred the treatment: 42%
[3]; brimonidine at […], drops twice a day for three to five weeks
  patient-reported redness: All patients reported reduced redness
